{"source": "patent US9333222B2", "about": "“Histone deacetylase inhibitors as therapeutic agents for Niemann-Pick type C disease” (University of Notre Dame du Lac, priority 2009, dated 2016)", "key": {"[1]": {"test_system": "NPC1 human fibroblast GM03123 cells", "experiment": "Filipin microscopy assay of free cholesterol in lysosomal storage organelles (LSO ratio)", "format": "cell-based", "conditions": "for pEC50: read-out: EC50 for correcting the NPC1 phenotype; for effect on NPC1 phenotype: after 4 hours", "protocol": "Images were acquired with wide-field microscopy at 10× magnification. […] The effect of each HDACi on NPC1 human fibroblasts was then determined at varying concentrations and times. […] Briefly, NPC1 human fibroblast GM03123 cells were seeded in five 384-well plates in growth medium. […] HDACi were allowed to remain in the culture medium for 72, 48, 24, 4, and 0 hours of treatment. For the control, cells were treated with a corresponding concentration of dimethyl sulfoxide (DMSO). HDACi were added to five wells for each concentration. […] Images were analyzed to obtain an LSO ratio and data were normalized to corresponding DMSO-treated cells."}, "[2]": {"test_system": "NPC1 human fibroblast GM18453 cells", "experiment": "Filipin microscopy assay of free cholesterol in LSO (LSO ratio)", "format": "cell-based", "protocol": "Next, the effect of HDACi on NPC1I1061T homozygous NPC1 human fibroblasts (GM18453) and on NPC2 human fibroblasts (GM18445) was evaluated. Briefly, NPC1 human fibroblast GM18453 cells and NPC2 human fibroblast GM18455 cells were seeded in five 384-well plates in growth medium. […] Cells were incubated at 37° C. in the presence of 5% CO2 atmosphere for 48 hours. […] Images were analyzed to obtain an LSO ratio and data were normalized to corresponding DMSO-treated cells. […] The dotted horizontal lines indicate mean values for the solvent control, and error bars represent the standard error.\nBriefly, NPC1 human fibroblast GM18453 cells and NPC2 human fibroblast GM18455 cells were seeded in five 384-well plates in growth medium. […] Cells were incubated at 37° C. in the presence of 5% CO2 atmosphere for 48 hours. […] Images were analyzed to obtain an LSO ratio, and data were normalized to corresponding DMSO-treated cells. […] The dotted horizontal lines indicate mean values for the solvent control, and the error bars represent the standard error."}, "[3]": {"target": "HDAC2 (Homo sapiens, UniProt Q92769)", "sequence (Q92769 whole entry, species assumed)": "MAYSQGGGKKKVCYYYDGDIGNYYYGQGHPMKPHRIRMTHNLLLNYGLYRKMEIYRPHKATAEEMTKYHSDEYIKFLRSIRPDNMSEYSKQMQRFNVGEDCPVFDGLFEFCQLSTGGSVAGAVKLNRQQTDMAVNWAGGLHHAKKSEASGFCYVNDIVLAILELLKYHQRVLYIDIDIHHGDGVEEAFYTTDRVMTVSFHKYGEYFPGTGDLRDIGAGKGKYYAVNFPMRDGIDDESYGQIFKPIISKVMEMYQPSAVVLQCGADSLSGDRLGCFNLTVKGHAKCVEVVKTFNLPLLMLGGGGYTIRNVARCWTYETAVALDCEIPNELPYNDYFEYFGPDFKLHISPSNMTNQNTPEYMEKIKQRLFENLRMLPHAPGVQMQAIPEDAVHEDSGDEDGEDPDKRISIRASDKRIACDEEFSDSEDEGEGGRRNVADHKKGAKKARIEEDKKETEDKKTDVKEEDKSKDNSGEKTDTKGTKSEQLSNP", "conditions": "read-out: Inhibition constant Ki HDAC2; cited from earlier work"}, "[4]": {"conditions": "Homo sapiens, Fibroblast, after 48 hours"}}, "note": "pEC50, pKi: −log10 of the molar value. Read-outs that look alike come from different tables or passages of the source."}
{"smiles": "CCCCOc1ccc(CC(=O)NO)cc1", "note": "[Bufexamac]", "values": [{"measurement": "correction of the NPC1 phenotype", "setting": "[1]; various concentrations (0.04-10 μM) and times (4-72 hours), GM03123", "result": "no correction of the NPC1 phenotype"}]}
{"smiles": "CC(=O)Nc1ccc(C(=O)Nc2ccccc2N)cc1", "note": "[CL-994]", "values": [{"measurement": "pEC50", "setting": "[1]; [4]", "result": "~6.00"}, {"measurement": "effect on NPC1 phenotype", "setting": "[1]; GM03123", "result": "no effect"}]}
{"smiles": "Cc1[nH]c2ccccc2c1CCNCc1ccc(/C=C/C(=O)NO)cc1", "note": "[LBH-589, panobinostat]", "values": [{"measurement": "concentration of highest efficacy in correcting the NPC1 phenotype", "setting": "[2]; 48-hour treatment, GM18453", "result": 37, "unit": "nM"}, {"measurement": "pEC50", "setting": "[1]; Homo sapiens, Fibroblast, 48 h", "result": "> 8.40"}]}
{"smiles": "COc1ccc(Cn2ccc3ccc(C(=O)NO)cc32)cc1", "note": "[PCI-34051]", "values": [{"measurement": "correction of the NPC1 phenotype", "setting": "[2]; 40 nM to 10 μM, 48 hours, NPC1 human fibroblasts (FIG. 6)", "result": "no correction of the NPC1 phenotype"}]}
{"smiles": "O=C(CCCCCCC(=O)Nc1cccnc1)NO", "note": "[Pyroxamide]", "values": [{"measurement": "pKi", "setting": "[3]", "result": 8.44}, {"measurement": "pEC50", "setting": "[1]; [4]", "result": "~6.00"}]}
{"smiles": "O=C(CCCCCCC(=O)Nc1ccccc1)NO", "note": "[SAHA, vorinostat]", "values": [{"measurement": "effect on NPC1 phenotype", "setting": "[1]; GM03123", "result": "no effect"}]}
{"smiles": "CC(/C=C/C(=O)NO)=C\\[C@@H](C)C(=O)c1ccc(N(C)C)cc1", "note": "[TSA, trichostatin A]", "values": [{"measurement": "pEC50", "setting": "[1]; after 48 hours", "result": "~7.70"}]}
